Results: patent publication US6911446B2, “Methods of modulating serine/threonine protein kinase function with quinazoline-based compounds” (Sugen, Inc., priority 1997, dated 2005)
“And” between values parts separate entries of the source, which are not always exact repeats. Equal entries are not always repeated.

Legend:
RAF-1 = target: T1, RAF-1 (Homo sapiens, UniProt P04049); test: RAF-1 ELISA phosphorylation assay (RAF-catalyzed phosphorylation of MEK and MAPK); assay type: biochemical; conditions: RAF-1 phosphorylation assay, lysates from RAS/RAF infected Sf9 cells, substrates T-MEK and His-MAPK
T1 construct: made in house; host or cells: Sf9 (Spodoptera frugiperda) cells co-infected with RAS and RAF recombinant baculoviruses
T1 sequence (P04049 whole entry): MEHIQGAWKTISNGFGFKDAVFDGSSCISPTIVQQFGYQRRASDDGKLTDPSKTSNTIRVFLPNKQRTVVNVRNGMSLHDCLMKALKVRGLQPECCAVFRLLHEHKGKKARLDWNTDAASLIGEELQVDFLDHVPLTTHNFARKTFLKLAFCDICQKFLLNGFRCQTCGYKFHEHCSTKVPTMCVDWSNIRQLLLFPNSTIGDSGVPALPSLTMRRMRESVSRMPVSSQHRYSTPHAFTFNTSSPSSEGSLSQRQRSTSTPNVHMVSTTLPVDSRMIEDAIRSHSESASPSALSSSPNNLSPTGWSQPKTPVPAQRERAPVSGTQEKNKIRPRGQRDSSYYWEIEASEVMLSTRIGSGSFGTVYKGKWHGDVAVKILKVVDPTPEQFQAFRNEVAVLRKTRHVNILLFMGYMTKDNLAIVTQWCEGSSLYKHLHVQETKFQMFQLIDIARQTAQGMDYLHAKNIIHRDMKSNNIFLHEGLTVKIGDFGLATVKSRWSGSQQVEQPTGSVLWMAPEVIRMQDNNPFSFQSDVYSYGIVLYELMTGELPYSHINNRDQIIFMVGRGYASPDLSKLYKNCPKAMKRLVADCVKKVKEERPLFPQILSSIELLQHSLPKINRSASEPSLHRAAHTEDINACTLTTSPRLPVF
Description: The following assay reports the amount of RAF-catalyzed phosphorylation of its target protein MEK as well as MEK's target MAPK. The RAF gene sequence is described in Bonner et al., 1985, Molec. Cell. Biol. 5: 1400-1407, and is readily accessible in multiple gene sequence data banks. Construction of the nucleic acid vector and cell lines utilized for this portion of the invention are fully described in Morrison et al., 1988, Proc. Natl. Acad. Sci. USA 85: 8855-8859.
• 1. Sf9 (Spodoptera frugiperda) cells; GIBCO-BRL, Gaithersburg, Md. • 2. RIPA buffer: 20 mM Tris/HCl pH 7.4, 137 mM NaCl, 10% glycerol, 1 mM PMSF, 5 mg/L Aprotenin, 0.5% Triton X-100; • 3. Thioredoxin-MEK fusion protein (T-MEK): T-MEK expression and purification by affinity chromatography were performed according to the manufacturer's procedures. Catalog#K 350-01 and R 350-40, Invitrogen Corp., San Diego, Calif. • 4. His-MAPK (ERK 2); His-tagged MAPK was expressed in XL1 Blue cells transformed with pUC18 vector encoding His-MAPK. His-MAPK was purified by Ni-affinity chromatography. Cat#27-4949-01, Pharmacia, Alameda, Calif., as described herein. • 5. Sheep anti mouse IgG: Jackson laboratories, West Grove, Pa. Catalog, #515-006-008, Lot#28563 • 6. RAF-1 protein kinase specific antibody: URP2653 from UBI. • 7. Coating buffer: PBS; phosphate buffered saline, GIBCO-BRL, Gaithersburg, Md. • 8. Wash buffer: TBST-50 mM Tris/HCL pH 7.2, 150 mM NaCl, 0.1% Triton X-100 • 9. Block buffer: TBST, 0.1% ethanolamine pH 7.4 • 10. DMSO, Sigma, St. Louis, Mo. • 11. Kinase buffer (KB): 20 mM Hepes/HC1 pH 7.2, 150 mM NaCl, 0.1% Triton X-100, 1 mM PMSF, 5 mg/L Aprotenin, 75 μM sodium ortho vanadate, 0.5 MM DTT and 10 mM MgCl2. • 12. ATP mix: 100 mM MgCl2, 300 μM ATP, 10 μCi γ-^33P ATP (Dupont-NEN)/mL. • 13 Stop solution: 1% phosphoric acid; Fisher, Pittsburgh, Pa. • 14. Wallac Cellulose Phosphate Filter mats; Wallac, Turku, Finnland. • 15. Filter wash solution: 1% phosphoric acid, Fisher, Pittsburgh, Pa. • 16. Tomtec plate harvester, Wallac, Turku, Finnland. • 17. Wallac beta plate reader #1205, Wallac, Turku, Finnland. • 18. NUNC 96-well V bottom polypropylene plates for compounds Applied Scientific Catalog #AS-72092. Procedure
All of the following steps were conducted at room temperature unless specifically indicated. • 1. ELISA plate coating: ELISA wells are coated with 100 μL of Sheep anti mouse affinity purified antiserum (1 μg/100 μL coating buffer) over night at 4° C. ELISA plates can be used for two weeks when stored at 4° C. • 2. Invert the plate and remove liquid. Add 100 μL of blocking solution and incubate for 30 min. • 3. Remove blocking solution and wash four times with wash buffer. Pat the plate on a paper towel to remove excess liquid. • 4. Add 1 μg of antibody specific for RAF-1 to each well and incubate for 1 hour. Wash as described in step 3. • 5. Thaw lysates from RAS/RAF infected Sf9 cells and dilute with TBST to 10 μg/100 μL. Add 10 μg of diluted lysate to the wells and incubate for 1 hour. Shake the plate during incubation. Negative controls receive no lysate. Lysates from RAS/RAF infected Sf9 insect cells are prepared after cells are infected with recombinant baculoviruses at a MOI of 5 for each virus, and harvested 48 hours later. The cells are washed once with PBS and lysed in RIPA buffer. Insoluble material is removed by centrifugation (5 min at 10,000×g). Aliquots of lysates are frozen in dry ice/ethanol and stored at −80° C. until use. • 6. Remove non-bound material and wash as outlined above (step 3). • 7. Add 2 μg of T-MEK and 2 μg of His-MAEPK per well and adjust the volume to 40 μL with kinase buffer. Methods for purifying T-MEK and MAPK from cell extracts are provided herein by example. • 8. Predilute compounds (stock solution 10 mg/mL DMSO) or extracts 20 fold in TBST plus 1% DMSO. Add 5 μL of the prediluted compounds/extracts to the wells described in step 6. Incubate for 20 min. Controls receive no drug. • 9. […]

Compound | IC50 (RAF-1) | melting point
Cc1ccc(Sc2cccc3nc(N)nc(N)c23)cc1 [Compound A-4, 2,4-Diamino-5-(4-methylphenylthio)quinazoline] | > 100 µM | –
Nc1nc(N)c2c(Nc3ccccc3)cccc2n1 [Compound A-35, 2,4-Diamino-5-anilinoquinazoline] | – | 279 to 283 °C (dec.)
CN(C)c1cccc(Oc2cccc3nc(N)nc(N)c23)c1 [Compound A-14, 2,4-Diamino-5-(3-dimethylaminophenoxy)quinazoline] | 24.6 µM and 57 µM | –
Nc1nc(N)c2c(Oc3cccc(C(F)(F)F)c3)cccc2n1 [Compound A-11, 2,4-Diamino-5-(3-trifluoromethylphenoxy)quinazoline] | > 100 µM | –
Nc1nc(N)c2c(Sc3ccc(Cl)cc3)cccc2n1 [Compound A-5, 2,4-Diamino-5-(4-chlorophenylthio)quinazoline] | > 100 µM | –
Nc1nc(-c2ccccc2)nc2cccc(Oc3ccccc3)c12 [Compound A-12, 4-Amino-2-phenyl-5-phenoxyquinazoline] | > 100 µM | 190 to 191 °C

Other lines, results leading:

IC50 (RAF-1) | melting point | Compound
25.6 µM | – | Nc1ncnc2cccc(Sc3ccccc3)c12 [Compound A-3, 4-Amino-5-phenylthioquinazoline]
0.1 µM | 188 to 190 °C | Nc1ncnc2cccc(Oc3ccc(F)cc3)c12 [Compound A-13, 4-Amino-5-(4-fluorophenoxy)quinazoline]
0.8 µM | – | COc1ccc(Oc2cccc3ncnc(N)c23)cc1 [Compound A-15, 4-Amino-5-(4-methoxyphenoxy)quinazoline]
